Here are results for 13 compounds from patent US20260053902A1, “COMPOSITIONS AND METHODS FOR REDUCING THE RATE OF TYPE 1 DIABETES” (Wisconsin Alumni Research Foundation, priority 2023, published 2026).

Ends that are not written are not given here. * marks the point of attachment. Cam = NC(=O)C*

The subject of test [1] is NOD mouse. Nature of the test: Rate of type 1 diabetes and final blood glucose in treated female NOD/ShiLtJ mice. The format is in vivo. Particulars: for rate of diabetes: EGCG IP in saline from age 3-5 days. How it is done:
Mouse care: NOD/ShiLtJ mice were from The Jackson Laboratory (Bar Harbor, ME, USA). Mice were housed under standard conditions (20-24° C., humidity 30-70%, lighting regimen 12 h light/12 h dark) in the University of Wisconsin Biomedical Research Model Service that is a specific pathogen free level 1 facility. […] Mice had access to acidified water or water containing a chemical and/or green tea ad libitum. All procedures were approved by the Research Animal Resources and Compliance veterinary care authority of the University of Wisconsin, Madison.
Mouse treatments: Mice were given chemicals by intraperitoneal injection and/or by gavage and/or in drinking water. Water-soluble chemicals were administered in a solution of sodium chloride adjusted to have a final osmolality of 0.5-0.9%. Lipid soluble chemicals were dissolved in olive oil, peanut oil, corn oil, Mazola® oil or canola oil.
Starting at age 2 to 5 days mice were given injections on every third or fourth day for 2 to 4 weeks (usually 2 to 2.5 weeks) for the first 4 or 6 injections, and thereafter twice per week on Mondays and Thursdays until up to age 100 days. In some instances, pregnant and nursing mice were given chemicals in drinking water starting at about the middle or late pregnancy continuing during nursing and also continuing for various lengths of time to the offspring with or without additional intraperitoneal injections of chemicals. In other instances, chemicals were delivered by intraperitoneal injection into pregnant mice and continued after delivery into the mouse pups. Chemicals, for example EGCG, were also delivered in drinking water starting before birth to the pregnant mouse mother and/or continuing and/or starting ad libitum to the mice after birth usually until at least 100 days of age or throughout life.
Chemicals given in distilled drinking water were green tea (as a source of EGCG and other catechins) (Lipton® 100% Natural Green Tea). […] The tea water was given alone and also in combination with acetaminophen 2 g/l in the same water.
In most cases nondiabetic mice were euthanized at 40-41 weeks of age. Statistical significances of the frequencies of diabetes in the mice receiving test treatments were compared to the rates of diabetes in mice receiving control treatments and were calculated with the Chi square test and with the Chi square test with Yate's correction.
In most of the studies, control solutions and the other treatments were administered to the mice until they were 100 days old. Mice without diabetes were euthanized at 40-41 weeks of age. Diabetic mice were euthanized when their blood glucose levels reached a level that met the criteria for diabetes.
Administration of water-soluble chemicals serving as controls to NOD mice: Control solutions were the vehicles in which chemicals were dissolved. Control solutions were usually administered to mouse litters from the same shipments as the litters receiving test chemicals and/or litters from the same parents as the litters receiving test chemicals and were administered during the same month and year as treatments to the litters receiving test treatments. Statistical probabilities between the rates of diabetes in the litters receiving test treatments were compared to litters simultaneously receiving control treatments.

Test [2] deals with NOD mouse. The following applies: Fu et al.: 1 mM EGCG in drinking water, given after age 5 weeks; 12 mice; 32 weeks of age; cited from earlier work.
Where [3] appears, read: 100 μmol/kg IP in saline, age 34 weeks.
The mark [4] stands for this setting: 50 μmol/kg IP in saline from age 3-5 days until 59-63 or 93-95 days, age 41-44 weeks.
Where [5] appears, read: 1 mM in drinking water, oral, from 1-4 days after birth.
[6] abbreviates: 60 day treatment (stopped at age 59-60 days), 50 μmol/kg IP in saline, age 40 weeks.
Where [7] appears, read: IP 50 μmol/kg in saline til wean (21 days), then gavage 100 μmol/kg until 97-98 days.
[8] abbreviates: started post wean (21 days) until 99 days, 50 μmol/kg IP in ¾ saline.
The mark [9] stands for this setting: hydroxytyrosol alone, 325 μmol/kg first 5 weeks, 650 thereafter, IP in ¾ saline.
[10] abbreviates: menaquinone-4 200 μmol/kg IP in olive oil, age 40 weeks.
[11] abbreviates: menaquinone-4 200 μmol/kg IP in peanut oil.
[12] abbreviates: pure oleocanthal (oil) 50 μmol/kg, no carrier, IP til wean, then gavage.
[13] abbreviates: 2000-3500 μmol/kg IP in olive oil, age 40 weeks.
Where [14] appears, read: 2000-3500 μmol/kg IP in peanut oil.
The mark [15] stands for this setting: started post wean, 3100-4000 μmol/kg IP in olive oil.
The mark [16] stands for this setting: quercetin 200 μmol/kg IP in olive oil, age 40 weeks.
Setting [17] is: quercetin 200 μmol/kg IP in peanut oil.
Where [18] appears, read: 1500 μmol/kg in olive oil, IP til wean (21 days), then gavage until 98 days, age 40 weeks.
Setting [19] is: 2000 μmol/kg IP in olive oil, age 40 weeks.
[20] abbreviates: 200 μmol/kg in ¾ saline, IP til wean (21 days), then gavage until 55-62 days, age 35 weeks.
Where [21] appears, read: 200 μmol/kg IP in saline, age 40 weeks.
Where [22] appears, read: 20 ug once per week for first 3 weeks, then 40 μg once per week until 100-110 days, IP in 5% DMSO/95% saline, age 40 weeks.
[23] abbreviates: 40 μg twice/week for two weeks then once per week until 14 weeks old, IP in 5% DMSO/95% saline.
Where [24] appears, read: 20 ug, then 40 μg after 3 weeks, IP in 5% DMSO/95% saline.

`O=C(O)/C=C/c1ccc(O)c(O)c1` [Caffeic Acid, reference compound]: in test [1] (setting [3]), the “Diabetes (%)” value worked out at 65%, the “Final Blood Glucose (mean ± SE) diabetic” value amounted to 611 ± 32 mg glucose/dl and the “Final Blood Glucose (mean ± SE) non-diabetic” value amounted to 178 ± 15 mg glucose/dl.
Regarding `O=C(O[C@@H]1Cc2c(O)cc(O)cc2O[C@@H]1c1cc(O)c(O)c(O)c1)c1cc(O)c(O)c(O)c1` [EGCG, (2R,3R)-5,7-Dihydroxy-2-(3,4,5-trihydroxyphenyl)-3,4-dihydro-2H-1-benzopyran-3-yl 3,4,5-trihydroxybenzoate], the “mice that had diabetes” value in test [2] is given as 25%. Further, the “Diabetes (%)” value in test [1] (setting [4]) was determined as 35%; in test [1] (setting [5]), 40%; in test [1] (setting [6]) it was 33%; in test [1] (setting [7]), 50%; in test [1] (setting [8]), 29%; in test [1] (started post wean, 250 μmol/kg by gavage in water, mice 24-27 weeks old, study ongoing), 25%. Besides, the “Final Blood Glucose (mean ± SE) diabetic” value in test [1] (setting [4]) amounted to 685 ± 34 mg glucose/dl; in test [1] (setting [5]), 708 ± 24 mg glucose/dl; in test [1] (setting [6]), 663 ± 57 mg glucose/dl; in test [1] (setting [7]) it was 624 ± 33 mg glucose/dl; in test [1] (setting [8]) it was 605 ± 59 mg glucose/dl. The “Final Blood Glucose (mean ± SE) non-diabetic” value in test [1] (setting [4]) was 159 ± 5 mg glucose/dl; in test [1] (setting [5]) it was 172 ± 4 mg glucose/dl; in test [1] (setting [6]), 145 ± 4 mg glucose/dl; in test [1] (setting [7]), 200 ± 12 mg glucose/dl; in test [1] (setting [8]), 166 ± 4 mg glucose/dl. For the same compound, the rate of diabetes in test [1] (treatment ending after 59-63 days, age 41-44 weeks) was found to be 38%; in test [1] (treatment ending after 93-95 days, age 41-44 weeks), 31%.
`OCCc1ccc(O)c(O)c1` [Hydroxytyrosol, 4-(2-hydroxyethyl)benzene-1,2-diol]: in test [1] (setting [9]), the “Diabetes (%)” value was found to be 59%, the “Final Blood Glucose (mean ± SE) diabetic” value was determined as 672 ± 24 mg glucose/dl and the “Final Blood Glucose (mean ± SE) non-diabetic” value is 173 ± 12 mg glucose/dl.
For the compound `CC(C)=CCC/C(C)=C/CC/C(C)=C/CC/C(C)=C\CC1=C(C)C(=O)c2ccccc2C1=O` [Menaquinone-4, 3-methyl-2-[(2Z,6E,10E)-3,7,11,15-tetramethylhexadeca-2,6,10,14-tetraenyl]naphthalene-1,4-dione, reference compound], the “Diabetes (%)” value in test [1] (200 μmol/kg in olive oil, IP til wean (21 days), then gavage until 98 days, mice 24-30 weeks old, study ongoing) stood at 25%; in test [1] (30 day treatment, 200 μmol/kg IP in olive oil, mice 20-40 weeks old, study ongoing), 32%; in test [1] (60 day treatment, 200 μmol/kg IP in olive oil, mice 34-36 weeks old, study ongoing), 4%; in test [1] (setting [10]) it was 0%; in test [1] (setting [11]) it was 50%. The “Final Blood Glucose (mean ± SE) non-diabetic” value came out at 172 ± 15 mg glucose/dl in test [1] (setting [10]) and 164 ± 9 mg glucose/dl in test [1] (setting [11]). In test [1] (setting [11]), the “Final Blood Glucose (mean ± SE) diabetic” value is recorded as 706 ± 25 mg glucose/dl.
Regarding `C/C=C(/C=O)[C@@H](CC=O)CC(=O)OCCc1ccc(O)cc1` [Oleocanthal (oil)], in test [1] (setting [12]), the “Diabetes (%)” value is 35%, the “Final Blood Glucose (mean ± SE) diabetic” value is on record as 560 ± 61 mg glucose/dl and the “Final Blood Glucose (mean ± SE) non-diabetic” value came to 178 ± 7 mg glucose/dl.
On to `CC1=C(C/C=C(\C)CCC[C@H](C)CCC[C@H](C)CCCC(C)C)C(=O)c2ccccc2C1=O` [Phylloquinone, reference compound], for which the “Diabetes (%)” value in test [1] (110 μmol/kg IP in olive oil) is on record as 38%; in test [1] (setting [13]), 21%; in test [1] (setting [14]), 40%; in test [1] (setting [15]) it was 36%. Moreover, the “Final Blood Glucose (mean ± SE) diabetic” value in test [1] (110 μmol/kg IP in olive oil) worked out at 648 ± 37 mg glucose/dl; in test [1] (setting [13]), 647 ± 27 mg glucose/dl; in test [1] (setting [14]) it was 646 ± 40 mg glucose/dl; in test [1] (setting [15]) it was 677 ± 20 mg glucose/dl. Further, the “Final Blood Glucose (mean ± SE) non-diabetic” value in test [1] (110 μmol/kg IP in olive oil) is listed as 174 ± 5 mg glucose/dl; in test [1] (setting [13]), 163 ± 5 mg glucose/dl; in test [1] (setting [14]), 167 ± 10 mg glucose/dl; in test [1] (setting [15]), 156 ± 6 mg glucose/dl.
Regarding `O=c1c(O)c(-c2ccc(O)c(O)c2)oc2cc(O)cc(O)c12` [Quercetin], in test [1] (setting [16]), the “Diabetes (%)” value is reported as 26%, the “Final Blood Glucose (mean ± SE) diabetic” value came out at 610 ± 56 mg glucose/dl and the “Final Blood Glucose (mean ± SE) non-diabetic” value amounted to 178 ± 7 mg glucose/dl. For the same compound, in test [1] (setting [17]), the “Diabetes (%)” value turned out to be 47%, the “Final Blood Glucose (mean ± SE) diabetic” value was determined as 651 ± 25 mg glucose/dl and the “Final Blood Glucose (mean ± SE) non-diabetic” value was 171 ± 11 mg glucose/dl.
For `CC1=C(C=O)C(C)(C)CC=C1` [Safranal, 2,6,6-Trimethylcyclohexa-1,3-diene-1-carbaldehyde], in test [1] (setting [18]), the “Diabetes (%)” value is given as 36%, the “Final Blood Glucose (mean ± SE) diabetic” value worked out at 595 ± 36 mg glucose/dl and the “Final Blood Glucose (mean ± SE) non-diabetic” value is reported as 172 ± 8 mg glucose/dl. In test [1] (setting [19]), the “Diabetes (%)” value came to 32%, the “Final Blood Glucose (mean ± SE) diabetic” value stood at 606 ± 60 mg glucose/dl and the “Final Blood Glucose (mean ± SE) non-diabetic” value was 159 ± 5 mg glucose/dl.
Take `C[S+]([O-])CCCCN=C=S` (stereo not drawn) [Sulforaphane, 1-Isothiocyanato-4-(methanesulfinyl)butane]: in test [1] (setting [20]), the “Diabetes (%)” value is recorded as 42%, the “Final Blood Glucose (mean ± SE) diabetic” value is recorded as 619 ± 37 mg glucose/dl and the “Final Blood Glucose (mean ± SE) non-diabetic” value worked out at 154 ± 7 mg glucose/dl.
Regarding `CC(S)C(=O)NCC(=O)O` (stereo not drawn) [Tiopronin, reference compound], in test [1] (setting [21]), the “Diabetes (%)” value came to 74%, the “Final Blood Glucose (mean ± SE) diabetic” value was found to be 685 ± 19 mg glucose/dl and the “Final Blood Glucose (mean ± SE) non-diabetic” value amounted to 175 ± 12 mg glucose/dl.
Regarding “SHLVEALYLVCGEEG (SHLVEALYLVC(Cam)GEEG) [Ins B9-23 19CAM22R-E, insulin B chain 9-23 mimotope peptide treated with iodoacetamide to carboxyamidomethylate the cysteine residue at position 19]”, in test [1] (setting [22]), the “Diabetes (%)” value is listed as 17%, the “Final Blood Glucose (mean ± SE) diabetic” value is 681 ± 82 mg glucose/dl and the “Final Blood Glucose (mean ± SE) non-diabetic” value came to 159 ± 6 mg glucose/dl.
In the case of “VEALYLVCEGEEG (VEALYLVC(Cam)EGEEG) [Ins B12-23 19CAM22R-E, insulin B12-23 mimotope peptide treated with iodoacetamide to carboxyamidomethylate the cysteine residue]”, in test [1] (setting [23]), the “Diabetes (%)” value was 54%, the “Final Blood Glucose (mean ± SE) diabetic” value was found to be 569 ± 70 mg glucose/dl and the “Final Blood Glucose (mean ± SE) non-diabetic” value is given as 166 ± 7 mg glucose/dl.
On to “VEALYLVCGERG (VEALYLVC(Cam)GERG) [Ins B12-23 19CAM]”, for which, in test [1] (setting [24]), the “Diabetes (%)” value is 47%, the “Final Blood Glucose (mean ± SE) diabetic” value is 679 ± 32 mg glucose/dl and the “Final Blood Glucose (mean ± SE) non-diabetic” value is 160 ± 6 mg glucose/dl.
